Experimental data reported in US20240131028A1, “CHEMOVACCINATION AGAINST PLASMODIUM INFECTION WITH SELECTIVE PLASMEPSIN X INHIBITORS” (Merck Sharp & Dohme LLC, priority 2021, published 2024).

Each compound was assayed on ring stage parasites (Pf) (assay: Parasite lactate dehydrogenase (LDH) growth assay (Parasite Assay, PfLDH Assay)). Settings: Plasmodium falciparum, 72 h, Table 3; 72 hours growth, LDH readout; read-out: EC50.
Assay type: cell-based, P. falciparum
Protocol: The parasite stock was maintained at 4% haematocrit in RPMI-Hepes media buffered with sodium bicarbonate and supplemented with 5% heat inactivated human serum and 0.5% albumax. […] On the day of assay set up, a blood smear of the parasite culture was Giemsa stained and counted. The parasitemia was adjusted to 0.7% rings and the haematocrit was diluted to 2% in RPMI-Hepes media buffered with sodium bicarbonate and supplemented with 5% heat inactivated human serum and 0.5% albumax. 30 μl of diluted parasites are then added into 10 μl of media+compound in pre-prepared Greiner TC assay plates. Parasite assay plates were placed in gassed humidified boxes in single layer and allowed to incubate at 37° C. for 72 hours. After 72 hours growth, assay plates were sealed with parafilm and frozen flat, in single file at −80° C. overnight. On the following day, assay plates were allowed to thaw at room temperature for 4 hours to which an LDH assay was performed to measure parasite growth.

First: CCC1(CC)CC(=O)N([C@H](CCOC)[C@H]2C[C@@H]2C(=O)N[C@H]2CC(C)(C)Oc3ccccc32)C(=N)N1 [Example 1A]
Second: CCC1(CC)CC(=O)N([C@H](CCOC)[C@H]2C[C@@H]2C(=O)N[C@@H]2CC(C)(C)Oc3ccccc32)C(=N)N1 [Example 1B]
The EC50 of the first is 250-fold lower: 1 nM for the first, 250 nM for the second.

`CCC1(CC)CC(=O)N(C[C@H]2C[C@@H]2C(=O)N[C@H](C)c2ccccc2)C(=N)N1` [Example 3B] and `CCC1(CC)CC(=O)N(C[C@H]2C[C@@H]2C(=O)N[C@H]2c3ccccc3C[C@@H]2O)C(=N)N1` [Example 6A] are within 1.5-fold of each other in EC50: 151 nM for the first, 188 nM for the second.

First: CCC1(CC)CC(=O)N(C[C@H]2C[C@@H]2C(=O)N[C@@H]2CCOc3ccccc32)C(=N)N1 [Example 4B]
Second: CCC1(CC)CC(=O)N(C[C@H]2C[C@@H]2C(=O)N[C@H]2CC(C)(C)Oc3ccccc32)C(=N)N1 [Example 5]
The EC50 of the first is 1.9-fold lower: 26 nM for the first, 49 nM for the second.

Compared with `CCC1(CC)CC(=O)N(C[C@H]2C[C@@H]2C(=O)N[C@H]2CC(C)(C)Oc3ccc(F)cc32)C(=N)N1` [Example 7A], `CCC1(CC)CC(=O)N(C[C@H]2C[C@@H]2C(=O)N[C@@H]2CC(C)(C)Oc3ccc(F)cc32)C(=N)N1` [Example 7B] is 4.7-fold lower in EC50: 135 nM for the first, 29 nM for the second.

Compared with `CCC1(CC)CC(=O)N(C[C@H]2C[C@@H]2C(=O)N[C@H]2C[C@@H](C(F)(F)F)Oc3ccccc32)C(=N)N1` [Example 8A], `CCC1(CC)CC(=O)N(C[C@H]2C[C@@H]2C(=O)N[C@@H]2C[C@@H](C(F)(F)F)Oc3ccccc32)C(=N)N1` [Example 8B] is 7-fold lower in EC50: 37 nM for the first, 5.3 nM for the second. The second is the more potent here.

Going from `CCC1(CC)CC(=O)N([C@H](c2cccnc2)[C@H]2C[C@@H]2C(=O)N[C@H]2CCOc3ccccc32)C(=N)N1` [Example 9] to `CCC1(CC)CC(=O)N([C@H](c2cccnc2)[C@H]2C[C@@H]2C(=O)N[C@H]2C[C@@H](C(F)(F)F)Oc3ccccc32)C(=N)N1` [Example 12], the EC50 falls from 6.9 nM to 0.9 nM (7.7-fold).

First: CCC1(CC)CC(=O)N([C@H](c2cccnc2)[C@H]2C[C@@H]2C(=O)N[C@@H]2c3ccccc3C[C@@H]2O)C(=N)N1 [Example 10]
Second: CCC1(CC)CC(=O)N([C@H](c2cccnc2)[C@H]2C[C@@H]2C(=O)N[C@@H]2c3ccccc3OC(C)(C)[C@H]2O)C(=N)N1 [Example 11A]
The EC50 of the first is 6.6-fold higher: 27 nM for the first, 4.1 nM for the second.

First: CCC1(CC)CC(=O)N([C@H](c2cccnc2)[C@H]2C[C@@H]2C(=O)N[C@H]2c3ccccc3OC(C)(C)[C@H]2O)C(=N)N1 [Example 11B]
Second: CC1(C)CC(=O)N([C@H](c2cccnc2)[C@H]2C[C@@H]2C(=O)N[C@@H]2c3ccccc3OC(C)(C)[C@H]2O)C(=N)N1 [Example 27]
The EC50 of the first is 3.2-fold lower: 24 nM for the first, 78 nM for the second.

`CCC1(CC)CC(=O)N([C@H](CCOC)[C@H]2C[C@@H]2C(=O)N[C@@H]2c3ccccc3C[C@@H]2O)C(=N)N1` [Example 13] and `CCC1(CC)CC(=O)N([C@H](CCOC)[C@H]2C[C@@H]2C(=O)N[C@@H]2c3ccccc3OCC2(C)C)C(=N)N1` [Example 19A] are within 1.5-fold of each other in EC50: 24 nM for the first, 28 nM for the second.

Compared with `CCC1(CC)CC(=O)N([C@H](CCOC)[C@H]2C[C@@H]2C(=O)N[C@H]2C[C@@H](C(F)(F)F)Oc3ccccc32)C(=N)N1` [Example 14], `COCC[C@H]([C@H]1C[C@@H]1C(=O)N[C@H]1C[C@@H](C(F)(F)F)Oc2ccccc21)N1C(=N)NC(C)(C)CC1=O` [Example 24A] is 3.8-fold higher in EC50: 0.9 nM for the first, 3.4 nM for the second. The first is the more potent here.

Compared with `CCC1(CC)CC(=O)N(C[C@@H]2[C@@H](C(=O)N[C@H]3c4ccccc4OC(C)(C)[C@H]3O)C2(F)F)C(=N)N1` [Example 18A], `CCC1(CC)CC(=O)N(C[C@@H]2[C@@H](C(=O)N[C@H]3CC(C)(C)Oc4ccccc43)C2(C)C)C(=N)N1` [Example 34] is 7.3-fold higher in EC50: 39 nM for the first, 286 nM for the second. The first is the more potent here.

Compared with `CCC1(CC)CC(=O)N([C@H](CCOC)[C@H]2C[C@@H]2C(=O)N[C@H]2c3ccccc3OCC2(C)C)C(=N)N1` [Example 19B], `COCC[C@H]([C@H]1C[C@@H]1C(=O)NC1CC(C)(C)Oc2ccccc21)N1C(=N)NC(C)(C)CC1=O` (some centres unmarked) [Example 23A] is 3.8-fold higher in EC50: 4.2 nM for the first, 16 nM for the second. The first is the more potent here.

First: COCC[C@H]([C@H]1C[C@@H]1C(=O)N[C@H]1CC(C)(C)Oc2ccccc21)N1C(=N)N[C@](C)(C(C)C)CC1=O [Example 20]
Second: COCC[C@H]([C@H]1C[C@@H]1C(=O)N[C@H]1CCOc2ccccc21)N1C(=N)N[C@](C)(C(C)C)CC1=O [Example 22]
The EC50 of the first is 8.3-fold lower: 5.3 nM for the first, 44 nM for the second.

Compared with `COCC[C@H]([C@H]1C[C@@H]1C(=O)N[C@H]1C[C@@H](C(F)(F)F)Oc2ccccc21)N1C(=N)N[C@](C)(C(C)C)CC1=O` [Example 21A], `COCC[C@H]([C@H]1C[C@@H]1C(=O)N[C@@H]1C[C@@H](C(F)(F)F)Oc2ccccc21)N1C(=N)N[C@](C)(C(C)C)CC1=O` [Example 21B] is 260-fold lower in EC50: 260 nM for the first, 1 nM for the second.

Compared with `COCC[C@H]([C@H]1C[C@@H]1C(=O)N[C@@H]1C[C@@H](C(F)(F)F)Oc2ccccc21)N1C(=N)NC(C)(C)CC1=O` [Example 24B], `COCC[C@@H]([C@H]1C[C@@H]1C(=O)N[C@H]1C[C@@H](C(F)(F)F)Oc2ccccc21)N1C(=N)NC(C)(C)CC1=O` [Example 24C] is 60-fold higher in EC50: 2 nM for the first, 120 nM for the second. The first is the more potent here.

Going from `CC1(C)CC(=O)N([C@H](c2cccnc2)[C@H]2C[C@@H]2C(=O)N[C@H]2CC(C)(C)Oc3ccccc32)C(=N)N1` [Example 26] to `COc1cncc([C@H]([C@H]2C[C@@H]2C(=O)N[C@H]2CC(C)(C)Oc3ccccc32)N2C(=N)NC(C)(C)CC2=O)c1` [Example 40], the EC50 falls from 4.7 nM to 3.1 nM (1.5-fold). The second is the more potent here.

Going from `CCC1(CC)CC(=O)N(C[C@H]2C(C)[C@@H]2C(=O)N[C@H]2C[C@@H](C(F)(F)F)Oc3ccccc32)C(=N)N1` (some centres unmarked) [Example 28A] to `CCC1(CC)CC(=O)N(CC2C(C(=O)N[C@H]3C[C@@H](C(F)(F)F)Oc4ccccc43)C2(C)C)C(=N)N1` (some centres unmarked) [Example 31A], the EC50 rises from 12 nM to 215 nM (18-fold).

Compared with `CCC1(CC)CC(=O)N(CC2C(C(=O)N[C@H]3C[C@H](C(F)(F)F)Oc4ccccc43)C2(C)C)C(=N)N1` (some centres unmarked) [Example 31B], `CCC1(CC)CC(=O)N([C@@H](c2cccnc2)[C@@H]2[C@@H](C(=O)N[C@H]3C[C@H](C(F)(F)F)Oc4ccccc43)C2(C)C)C(=N)N1` [Example 44A] is 26-fold lower in EC50: 213 nM for the first, 8.3 nM for the second. The second is the more potent here.

Compared with `CC1(C)CC(=O)N([C@H](c2cccnc2)[C@H]2C[C@@H]2C(=O)N[C@H]2C[C@H](C(F)(F)F)Oc3ccccc32)C(=N)N1` [Example 32], `CC1(C)CC(=O)N([C@H](c2cccnc2)[C@@H]2[C@@H](C(=O)N[C@H]3C[C@H](C(F)(F)F)Oc4ccccc43)C2(C)C)C(=N)N1` [Example 43A] is 2.2-fold higher in EC50: 1.8 nM for the first, 4 nM for the second.

Compared with `CCC1(CC)CC(=O)N(C[C@H]2C(C)[C@@H]2C(=O)N[C@@H]2c3ccccc3C[C@H]2O)C(=N)N1` (some centres unmarked) [Example 33], `CCC1(CC)CC(=O)N([C@H](c2cccnc2)[C@@H]2[C@@H](C(=O)N[C@H]3C[C@H](C(F)(F)F)Oc4ccccc43)C2(C)C)C(=N)N1` [Example 44B] is 84-fold lower in EC50: 76 nM for the first, 0.9 nM for the second. The second is the more potent here.

`COc1ccc([C@H]([C@H]2C[C@@H]2C(=O)N[C@H]2C[C@H](C(F)(F)F)Oc3ccccc32)N2C(=N)NC(C)(C)CC2=O)cn1` [Example 37] and `COc1cncc([C@H]([C@H]2C[C@@H]2C(=O)N[C@H]2C[C@H](C(F)(F)F)Oc3ccccc32)N2C(=N)NC(C)(C)CC2=O)c1` [Example 41] are within 1.5-fold of each other in EC50: 1.2 nM for the first, 1.1 nM for the second.

Going from `COc1ccc([C@H]([C@H]2C[C@@H]2C(=O)N[C@@H]2c3ccccc3OC(C)(C)[C@H]2O)N2C(=N)NC(C)(C)CC2=O)cn1` [Example 39] to `COc1cncc([C@H]([C@H]2C[C@@H]2C(=O)N[C@@H]2c3ccccc3OC(C)(C)[C@H]2O)N2C(=N)NC(C)(C)CC2=O)c1` [Example 42], the EC50 rises from 10.1 nM to 18.4 nM (1.8-fold). The first is the more potent here.

Compared with `CC1(C)CC(=O)N([C@@H](c2cccnc2)[C@@H]2[C@@H](C(=O)N[C@H]3C[C@H](C(F)(F)F)Oc4ccccc43)C2(C)C)C(=N)N1` [Example 43B], `CC1(C)CC(=O)N([C@H](c2ccc(C#N)cc2)[C@H]2C[C@@H]2C(=O)N[C@H]2CC(C)(C)Oc3ccccc32)C(=N)N1` [Example 45A] is 13-fold lower in EC50: 37 nM for the first, 2.8 nM for the second.

Compared with `CC1(C)CC(=O)N([C@@H](c2ccc(C#N)cc2)[C@H]2C[C@@H]2C(=O)N[C@H]2CC(C)(C)Oc3ccccc32)C(=N)N1` [Example 45B], `CC1(C)CC(=O)N([C@H](c2ccc(C#N)cc2)[C@H]2C[C@@H]2C(=O)N[C@@H]2c3ccccc3OC(C)(C)[C@H]2O)C(=N)N1` [Example 46] is 88-fold lower in EC50: 220 nM for the first, 2.5 nM for the second.

Same assay, conditions: Table 3; 72 hours growth, LDH readout; read-out: EC50

Going from `CCC1(CC)CC(=O)N(C[C@H]2C[C@@H]2C(=O)N[C@H]2c3ccccc3C[C@@H]2O)C(=N)N1` [Example 6B] to `CCC1(CC)CC(=O)N(C[C@H]2C(C)[C@@H]2C(=O)N[C@H]2C[C@@H](C(F)(F)F)Oc3ccccc32)C(=N)N1` (some centres unmarked) [Example 28B], the EC50 falls from 269 nM to 14 nM (19-fold). The second is the more potent here.

`COCC[C@H]([C@H]1C[C@@H]1C(=O)NC1CC(C)(C)Oc2ccccc21)N1C(=N)NC(C)(C)CC1=O` (some centres unmarked) [Example 23B] gave an EC50 of 15 nM.

Same assay, conditions: Table 4; 72 hours growth, LDH readout; read-out: EC50 (Table 4)

Compound `CCC1(CC)CC(=O)N([C@H](CCOC)[C@H]2C[C@@H]2C(=O)NC2CC(C)(C)Oc3cc(Cl)ccc32)C(=N)N1` (single isomer, unassigned) [Example 147A] has an EC50 of 2.8 nM.
Work on `CCC1(CC)CC(=O)N([C@H](CCOC)[C@H]2C[C@@H]2C(=O)NC2CC(C)(C)Oc3cc(Cl)ccc32)C(=N)N1` (single isomer, unassigned) [Example 147B] yielded an EC50 of 8.2 nM.
